This is an account of results in patent US8796289B2 (AbbVie Inc., priority 2011, dated 2014).

Each structure is given as a SMILES string.

The target of this assay is GST-tagged-Wee1 kinase (Homo sapiens, UniProt P30291). Put plainly: Wee1 time-resolved fluorescence equilibrium binding assay (displacement of Oregon Green-labeled ATP-competitive kinase probe). How it is done: Wee1 kinase was assayed using a time-resolved fluorescence equilibrium binding assay monitoring displacement of a rapidly reversible Oregon Green-labeled ATP-competitive kinase probe (N-(2-(2-(2-(4-(4-(5-chloro-4-(2-(1-hydroxycyclobutyl)thiazol-5-yl)-1H-pyrrolo[2,3-b]pyridin-2-yl)phenyl)piperazin-1-yl)ethoxy)ethoxy)ethyl)-2′,7′-difluoro-3′,6′-dihydroxy-3-oxo-3H-spiro[isobenzofuran-1,9′-xanthene]-5-carboxamide) by competitive Wee1 inhibitors.
Chain of GST-tagged-Wee1 kinase (P30291 whole entry): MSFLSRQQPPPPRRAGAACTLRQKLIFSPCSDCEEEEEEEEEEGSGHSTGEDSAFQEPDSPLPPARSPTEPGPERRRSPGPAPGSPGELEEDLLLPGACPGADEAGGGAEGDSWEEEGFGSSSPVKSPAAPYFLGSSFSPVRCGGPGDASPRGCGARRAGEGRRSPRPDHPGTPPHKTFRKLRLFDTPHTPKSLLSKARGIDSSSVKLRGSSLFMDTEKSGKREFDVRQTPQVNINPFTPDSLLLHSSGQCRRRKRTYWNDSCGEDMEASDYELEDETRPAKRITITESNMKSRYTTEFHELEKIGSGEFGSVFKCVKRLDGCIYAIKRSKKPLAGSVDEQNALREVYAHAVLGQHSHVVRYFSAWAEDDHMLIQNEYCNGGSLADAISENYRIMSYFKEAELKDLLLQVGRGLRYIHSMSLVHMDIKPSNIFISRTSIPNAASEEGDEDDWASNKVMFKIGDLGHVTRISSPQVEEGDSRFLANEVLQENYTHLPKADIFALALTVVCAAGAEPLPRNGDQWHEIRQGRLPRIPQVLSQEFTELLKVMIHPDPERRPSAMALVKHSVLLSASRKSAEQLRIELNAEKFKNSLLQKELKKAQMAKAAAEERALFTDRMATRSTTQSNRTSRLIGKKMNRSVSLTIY
As usually defined, the Ki is a dissociation constant, usually derived from enzyme kinetics or from competition with a known ligand. A low value points to tighter binding. Compound `Cc1cc(Nc2ncc3c(=O)n(-c4ccccc4Cl)nc(-c4ccccc4)c3n2)ccc1N1CCN(C(C)C)CC1` [Example 205, 6-(2-chlorophenyl)-2-({3-methyl-4-[4-(propan-2-yl)piperazin-1-yl]phenyl}amino)-8-phenylpyrimido[4,5-d]pyridazin-5(6H)-one] came in with a Ki of 0.2 nM.

The compound `CN1CCN(c2ccc(Nc3ncc4c(=O)n(-c5c(Cl)cccc5Cl)nc(C(F)(F)F)c4n3)cc2)CC1` [Example 412, 6-(2,6-dichlorophenyl)-2-{[4-(4-methylpiperazin-1-yl)phenyl]amino}-8-(trifluoromethyl)pyrimido[4,5-d]pyridazin-5(6H)-one] came in with a Ki of 1 nM. As to `CCCc1nn(CC(F)(F)F)c(=O)c2cnc(Nc3ccc(N4CCN(C)CC4)cc3)nc12` [Example 23, 2-{[4-(4-methylpiperazin-1-yl)phenyl]amino}-8-propyl-6-(2,2,2-trifluoroethyl)pyrimido[4,5-d]pyridazin-5(6H)-one], the Ki was 370 nM. Turning to `CNCCn1cc(-c2nn(-c3c(Cl)cccc3Cl)c(=O)c3cnc(Nc4ccc(N5CCN(C)CC5)cc4)nc23)cn1` [Example 211, 6-(2,6-dichlorophenyl)-8-{1-[2-(methylamino)ethyl]-1H-pyrazol-4-yl}-2-{[4-(4-methylpiperazin-1-yl)phenyl]amino}pyrimido[4,5-d]pyridazin-5(6H)-one], the affinity corresponds to a Ki of 0.6 nM. Consider `Cc1ccccc1-c1nn(-c2c(Cl)cccc2Cl)c(=O)c2cnc(Nc3ccc(N4CCN(C)CC4)cc3)nc12` [Example 71, 6-(2,6-dichlorophenyl)-8-(2-methylphenyl)-2-{[4-(4-methylpiperazin-1-yl)phenyl]amino}pyrimido[4,5-d]pyridazin-5(6H)-one], for which the inhibition constant Ki was 0.2 nM. As to `Cc1nn(-c2c(Cl)cccc2Cl)c(=O)c2cnc(Nc3ccc4c(c3)CN(C)CC4)nc12` [Example 490, 6-(2,6-dichlorophenyl)-8-methyl-2-[(2-methyl-1,2,3,4-tetrahydroisoquinolin-7-yl)amino]pyrimido[4,5-d]pyridazin-5(6H)-one], the Ki amounted to 0.11 nM. The same measure for `CN1CCN(c2ccc(Nc3ncc4c(=O)n(-c5c(Cl)cccc5Cl)nc(C5CC5)c4n3)cc2)CC1` [Example 386, 8-cyclopropyl-6-(2,6-dichlorophenyl)-2-{[4-(4-methylpiperazin-1-yl)phenyl]amino}pyrimido[4,5-d]pyridazin-5(6H)-one]: 0.48 nM; for `Cc1cccc(Cl)c1-n1nc(C)c2nc(Nc3ccc4c(c3)CNCC4)ncc2c1=O` [Example 495, 6-(2-chloro-6-methylphenyl)-8-methyl-2-(1,2,3,4-tetrahydroisoquinolin-7-ylamino)pyrimido[4,5-d]pyridazin-5(6H)-one]: 0.16 nM; for `CC(=O)c1cc(-c2nn(-c3c(Cl)cccc3Cl)c(=O)c3cnc(Nc4ccc(N5CCN(C)CC5)cc4)nc23)ccn1` [Example 219, 8-(2-acetylpyridin-4-yl)-6-(2,6-dichlorophenyl)-2-{[4-(4-methylpiperazin-1-yl)phenyl]amino}pyrimido[4,5-d]pyridazin-5(6H)-one]: 0.1 nM. In the case of `CN1CCN(c2ccc(Nc3ncc4c(=O)n(-c5c(Cl)cccc5Cl)nc(-c5ccn(CCCl)n5)c4n3)cc2)CC1` [Example 234, 8-[1-(2-chloroethyl)-1H-pyrazol-3-yl]-6-(2,6-dichlorophenyl)-2-{[4-(4-methylpiperazin-1-yl)phenyl]amino}pyrimido[4,5-d]pyridazin-5(6H)-one], the affinity, expressed as Ki, was 0.3 nM.

On to `CN1CCN(c2ccc(Nc3ncc4c(=O)n(C)nc(CCc5ccccc5)c4n3)cc2)CC1` [Example 6, 6-methyl-2-{[4-(4-methylpiperazin-1-yl)phenyl]amino}-8-(2-phenylethyl)pyrimido[4,5-d]pyridazin-5(6H)-one], for which the Ki is 680 nM. In the case of `COCn1ccc(-c2nn(-c3c(Cl)cccc3Cl)c(=O)c3cnc(Nc4ccc(N5CCN(C)CC5)cc4)nc23)n1` [Example 268, 6-(2,6-dichlorophenyl)-8-[1-(methoxymethyl)-1H-pyrazol-3-yl]-2-{[4-(4-methylpiperazin-1-yl)phenyl]amino}pyrimido[4,5-d]pyridazin-5(6H)-one], the Ki stood at 0.1 nM.
